This assay concerns the target T1, recombinant human GST-SYK (Homo sapiens, UniProt P43405).
T1 construct: purchased Carna Biosciences 08-176
The assay can be described thus: Homogeneous Time-Resolved Fluorescence (HTRF) assay for the recombinant human Syk enzyme. It counts as biochemical. Conditions: HTRF assay, recombinant human GST-SYK; IC50 given as class symbols; read-out: rhSYK Activity. The essentials: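 Phosphotyrosine product from a biotinylated Syk substrate peptide was detected by HTRF (europium antibody/SA-APC, read after 30 min) following a 45-minute room-temperature reaction at 25 μM ATP, with […] preincubated 10 minutes with inhibitor.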
A general note: TR-FRET usually uses a lanthanide donor and a delayed reading to cut background.
As to `CCOC(=O)CCc1ccc(-c2cccc(Nc3nccc(C(F)(F)F)n3)c2)cn1` [Example 2.77, ethyl 3-[5-(3-{[4-(trifluoromethyl)pyrimidin-2-yl]amino}phenyl)pyridin-2-yl]propanoate], the IC50 was in the range of 100 to 1000 nM.

With `Cc1cc(Nc2nccc(C(F)(F)F)n2)cc(-c2ccc(NS(=O)(=O)N3CCCCC3)nc2)c1` [Example 2.62, N-[5-(3-methyl-5-{[4-(trifluoromethyl)pyrimidin-2-yl]amino}phenyl)pyridin-2-yl]piperidine-1-sulfonamide], the IC50 is 100 to 1000 nM.

Take `CNC(=O)CCNc1ccc(-c2cc(C)cc(Nc3nccc(C(F)(F)F)n3)c2)cn1` [Example 7.62, N-methyl-N~3~-[5-(3-methyl-5-{[4-(trifluoromethyl)pyrimidin-2-yl]amino}phenyl)pyridin-2-yl]-beta-alaninamide]: the IC50 was less than 100 nM.

As to `Cc1cc(Nc2nccc(C(F)(F)F)n2)cc(-c2ccnc(NC(C)(C)C(=O)O)c2)c1` [Example 15.43, 2-methyl-N-[4-(3-methyl-5-{[4-(trifluoromethyl)pyrimidin-2-yl]amino}phenyl)pyridin-2-yl]alanine], the IC50 is less than 100 nM.

For the molecule `Cc1cc(Nc2nccc(C(F)(F)F)n2)cc(-c2ccnc(C3(O)CCC4(CC3)OCCO4)c2)c1` [Example 9.63, 8-[4-(3-methyl-5-{[4-(trifluoromethyl)pyrimidin-2-yl]amino}phenyl)pyridin-2-yl]-1,4-dioxaspiro[4.5]decan-8-ol], the IC50 was less than 100 nM.

Regarding `Cc1cc(Nc2nccc(C(F)(F)F)n2)cc(-c2ccc(N[C@H](CC(N)=O)C(=O)O)nc2)c1` [Example 7.93, N~2~-[5-(3-methyl-5-{[4-(trifluoromethyl)pyrimidin-2-yl]amino}phenyl)pyridin-2-yl]-D-asparagine], the IC50 is less than 100 nM.

For the molecule `Cn1ccc(-c2cccc(Nc3nccc(C(F)(F)F)n3)c2)cc1=O` [Example 5.2, 1-methyl-4-(3-{[4-(trifluoromethyl)pyrimidin-2-yl]amino}phenyl)pyridin-2(1H)-one], the IC50 lay within 100 to 1000 nM.

As for `COc1ccnc(Nc2cc(C)cc(-c3ccnc(N)c3)c2)n1` [Example 4.1, N-[3-(2-aminopyridin-4-yl)-5-methylphenyl]-4-methoxypyrimidin-2-amine], the IC50 is less than 100 nM.

In the case of `Cc1cc(Nc2nccc(C(F)(F)F)n2)cc(-c2ccc(N(C)CC(N)=O)nc2)c1` [Example 7.153, N~2~-methyl-N~2~-[5-(3-methyl-5-{[4-(trifluoromethyl)pyrimidin-2-yl]amino}phenyl)pyridin-2-yl]glycinamide], the IC50 was less than 100 nM.

With `Cc1cc(Nc2nccc(C(F)(F)F)n2)cc(-c2ccc(NC3(C(N)=O)CC3)nc2)c1` [Example 12.8, 1-{[5-(3-methyl-5-{[4-(trifluoromethyl)pyrimidin-2-yl]amino}phenyl)pyridin-2-yl]amino}cyclopropanecarboxamide], the IC50 is less than 100 nM.

Regarding `Cc1cc(Nc2nccc(C(F)(F)F)n2)cc(-c2ccc(NCCN)nc2)c1` [Example 7.25A, N-[5-(3-methyl-5-{[4-(trifluoromethyl)pyrimidin-2-yl]amino}phenyl)pyridin-2-yl]ethane-1,2-diamine], the IC50 is less than 100 nM.

As to `CCC[C@@H](Nc1ccc(-c2cc(C)cc(Nc3nccc(C(F)(F)F)n3)c2)cn1)C(=O)O` [Example 7.107, N-[5-(3-methyl-5-{[4-(trifluoromethyl)pyrimidin-2-yl]amino}phenyl)pyridin-2-yl]-D-norvaline], the IC50 is less than 100 nM.

With `Cc1cc(Nc2nccc(C(F)(F)F)n2)cc(-c2ccc(C(=O)NC(C3CC3)C3CC3)nc2)c1` [Example 16.46, N-(dicyclopropylmethyl)-5-(3-methyl-5-{[4-(trifluoromethyl)pyrimidin-2-yl]amino}phenyl)pyridine-2-carboxamide], the IC50 was in the range of 100 to 1000 nM.

Consider `Cc1cc(Nc2nccc(C(F)(F)F)n2)cc(-c2ccc(OC3CCC(C(=O)O)CC3)nc2)c1` (stereo not drawn) [Example 2.110, 4-{[5-(3-methyl-5-{[4-(trifluoromethyl)pyrimidin-2-yl]amino}phenyl)pyridin-2-yl]oxy}cyclohexanecarboxylic acid], for which the IC50 was less than 100 nM.

With `O=C(O)[C@@H]1CCN1c1ccc(-c2cc(F)cc(Nc3ncc(F)c(C4CC4)n3)c2)cn1` [Example 7.160, (2S)-1-(5-{3-[(4-cyclopropyl-5-fluoropyrimidin-2-yl)amino]-5-fluorophenyl}pyridin-2-yl)azetidine-2-carboxylic acid], the IC50 is less than 100 nM.

For `Cc1cc(Nc2nccc(C(C)(F)F)n2)cc(-c2cccnc2)c1` [Example 20.1, 4-(1,1-Difluoroethyl)-N-[3-methyl-5-(pyridin-3-yl)phenyl]pyrimidin-2-amine], the IC50 is less than 100 nM.

Turning to `Cc1cc(Nc2nccc(C(F)(F)F)n2)cc(-c2ccc(NC[C@H]3CC[C@H](C(=O)O)CC3)nc2)c1` [Example 7.144, trans-4-({[5-(3-methyl-5-{[4-(trifluoromethyl)pyrimidin-2-yl]amino}phenyl)pyridin-2-yl]amino}methyl)cyclohexanecarboxylic acid], the IC50 was less than 100 nM.

On to `CCCN1CCCN(c2ccc(-c3cc(C)cc(Nc4nccc(C(F)(F)F)n4)c3)cn2)CC1` [Example 7.60, N-{3-methyl-5-[6-(4-propyl-1,4-diazepan-1-yl)pyridin-3-yl]phenyl}-4-(trifluoromethyl)pyrimidin-2-amine], for which the IC50 lay within 100 to 1000 nM.

On to `Cc1cc(Nc2nccc(C(F)(F)F)n2)cc(-c2ccc(/C=C/C(=O)O)nc2)c1` [Example 22.2, 3-[5-(3-Methyl-5-{[4-(trifluoromethyl)pyrimidin-2-yl]amino}phenyl)pyridin-2-yl]prop-2-enoic acid], for which the IC50 was less than 100 nM.

Take `Cc1cc(Nc2nccc(C(F)(F)F)n2)cc(-c2ccnc(N3CCCC4(CCCNC4=O)C3)c2)c1` (stereo not drawn) [Example 15.27, 8-[4-(3-methyl-5-{[4-(trifluoromethyl)pyrimidin-2-yl]amino}phenyl)pyridin-2-yl]-2,8-diazaspiro[5.5]undecan-1-one]: the IC50 was less than 100 nM.

Turning to `Cc1cc(Nc2nccc(C(F)(F)F)n2)cc(-c2ccc(C(=O)N(C)CCS(C)(=O)=O)nc2)c1` [Example 16.58, N-methyl-N-[2-(methylsulfonyl)ethyl]-5-(3-methyl-5-{[4-(trifluoromethyl)pyrimidin-2-yl]amino}phenyl)pyridine-2-carboxamide], the IC50 was less than 100 nM.

For `Cc1cc(Nc2nccc(C(F)(F)F)n2)cc(-c2ccc(C(=O)N(C)C(C3CC3)C3CC3)nc2)c1` [Example 16.36, N-(dicyclopropylmethyl)-N-methyl-5-(3-methyl-5-{[4-(trifluoromethyl)pyrimidin-2-yl]amino}phenyl)pyridine-2-carboxamide], the IC50 was in the range of 100 to 1000 nM.

As to `Cc1cc(Nc2nccc(C)n2)cc(-c2cncc(CCC(=O)O)c2)c1` [Example 2.90, 3-(5-{3-methyl-5-[(4-methylpyrimidin-2-yl)amino]phenyl}pyridin-3-yl)propanoic acid], the IC50 is 100 to 1000 nM.

As for `Cc1cc(Nc2nccc(C(F)(F)F)n2)cc(-c2cncc(C(O)(CO)CO)c2)c1` [Example 9.80, 2-[5-(3-methyl-5-{[4-(trifluoromethyl)pyrimidin-2-yl]amino}phenyl)pyridin-3-yl]propane-1,2,3-triol], the IC50 was less than 100 nM.

Values taken from patent US9376418B2, “Substituted pyridine spleen tyrosine kinase (SYK) inhibitors” (Merck Sharp & Dohme Corp., priority 2012, dated 2016).
